Reference: patent US20250376483A1, “PRODRUGS OF PAN-KRAS INHIBITORS” (Mirati Therapeutics, Inc., priority 2022, published 2025)

How the values were obtained:
[1] = Whole Blood Stability Assay (mouse whole blood); assay type: in vitro ADME; conditions: CD-1 mouse blood, EDTA-K2, final conc. 2 μM, 37° C., 0-120 min; for half-life at 2 μM: male, fresh whole blood, read-out: Mouse Whole Blood Stability t1/2
Procedure: Whole Blood Stability Assay
This Example illustrates that exemplary compounds of the present invention is cleavage in mouse whole blood.
(§1) Test Compounds and Stock Solutions: Stock Conc. 10 mM; Final Conc. 2 μM
(§2) Test Compound and Control Working Solution Preparation:
• Intermediate solution: 5 μL of compound stock solution (10 mM in dimethyl sulfoxide (DMSO)) were diluted with […] of DMSO (intermediate solution concentration: 1 mM, 100% DMSO) • Propantheline bromide (control) intermediate solution: 5 μL of propantheline stock solution (10 mM in ultra-pure water) were diluted with 45 μL of ultra-pure water (intermediate solution concentration: 1 mM) • Working solution 1: 20 μL of test compound intermediate solution (1 mM) were diluted with 180 μL of 45% ACN/H2O (working solution concentration: […], 40.5% ACN, 10% DMSO) • Working solution 2: 20 μL of control intermediate solution (1 mM) were diluted with 180 μL of 45% ACN/H2O (working solution concentration: 100 μM, 40.5% ACN, 10% DMSO) • Species/Matrix: CD-1 Mouse Blood • No. of Individuals: n>3 Male • Anticoagulant Used: EDTA-K2
• The fresh blood was collected on the day of experiment and pre-warmed in a water bath at 37° C. • Using an Apricot automation workstation, 98 μL/well of blank blood were added to all 96-well reaction plates (Blank, T0, T10, T30, T60 and T120). • An Apricot automation workstation was used to add 2 μL/well of working solution (100 μM) to all reaction plates except Blank (T0, T10, T30, T60 and T120). • All reaction plates containing mixtures of compound and blood were incubated at 37° C. in water bath. • The reaction plates were incubated at 37° C., and timer was started. • At the end of incubation, mixed 100 μL water with 100 μL spiked blood samples, then added 800 μL of stop solution (200 ng/mL tolbutamide and 200 ng/mL labetalol in ACN) to precipitate protein. Mixed thoroughly. • Each plate was sealed and shaken for 20 minutes. • After shaking, each plate was centrifuged at 4000 rpm and 4° C. for 20 minutes. • After centrifugation, an Apricot automation workstation was used to transfer 150 μL of supernatant from each reaction plate to its corresponding bioanalysis plate. • Each bioanalysis plate was submitted to LC-MS/MS analysis.
• The % remaining of test compound after incubation in blood was calculated using following equation:
(§3) [formula] • where PAR is the peak area ratio of analyte versus internal standard (IS) • The appointed incubation time points are TO (0 min), Tn (n=0, 10, 30, 60 and 120 min)

[2] = Plasma Stability Assay (human plasma); assay type: in vitro ADME; conditions: both sexes; pooled human plasma, heparin, final conc. 2 μM, 37° C., 0-120 min; read-out: Human Plasma Stability t1/2
Procedure: This Example illustrates that exemplary compounds of the present invention is cleavage in human plasma.
as §1, §2
• Test compound intermediate solution: 10 μL of compound stock solution (10 mM in dimethyl sulfoxide (DMSO)) were diluted with 90 μL of DMSO (intermediate solution concentration: 1 mM, 100% DMSO) • Control intermediate solution: 10 μL of control stock solution (10 mM in dimethyl sulfoxide (DMSO)) were diluted with 90 μL of DMSO (intermediate solution concentration: 1 mM, 100% DMSO) • Species/Matrix: Human Plasma • No. of Individuals: 3 Male & 3 Female • Anticoagulant Used: Heparin
• The pooled frozen plasma was thawed in a water bath at 37° C. prior to experiment. Plasma was centrifuged at 4000 rpm for 5 min and the clots were removed if any. • Using an Apricot automation workstation, 98 μL/well of blank plasma were added to all 96-well reaction plates. (Blank, T0, T10, T30, T60 and T120) • An Apricot automation workstation was used to add 2 μL/well of working solution (100 μM) to all reaction plates except Blank. (T0, T10, T30, T60 and T120) • All reaction plates containing mixtures of compound and plasma were incubated at 37° C. in water bath. • The reaction plates were incubated at 37° C., and timer was started. • At the end of incubation, added 500 μL of stop solution (200 ng/mL tolbutamide and 200 ng/mL labetalol in ACN) to precipitate protein. Mixed thoroughly. • Each plate was sealed and shaken for 20 minutes. • After shaking, each plate was centrifuged at 4000 rpm and 4° C. for 20 minutes • After centrifugation, an Apricot automation workstation was used to transfer 50 μL supernatant into 100 μL HPLC water. • Each bioanalysis plate was sealed and shaken for 10 minutes prior to LC-MS/MS analysis Data Analysis • The % remaining of test compound after incubation in blood was calculated using following equation:
as §3

| SMILES | half-life at 2 μM [1] [min] | half-life at 2 μM [2] [min] | Mouse Whole Blood Stability t1/2 [1] [min] |
| --- | --- | --- | --- |
| CCc1c(F)ccc2cc(OC(=O)N(C)C)cc(-c3ncc4c(N5C[C@@H]6C[C@H](C5)[C@H](O)C6)nc(OC[C@@]56CCCN5C[C@H](F)C6)nc4c3F)c12 [Example 6, 5-ethyl-6-fluoro-4-(8-fluoro-2-(((2R,7aS)-2-fluorotetrahydro-1H-pyrrolizin-7a(5H)-yl)methoxy)-4-((1R,5R,6R)-6-hydroxy-3-azabicyclo[3.2.1]octan-3-yl)pyrido[4,3-d]pyrimidin-7-yl)naphthalen-2-yl dimethylcarbamate] | > 289 | > 289 |  |
| CCc1c(F)ccc2cc(OC(=O)N3CCCCC3)cc(-c3ncc4c(N5C[C@@H]6C[C@H](C5)[C@H](O)C6)nc(OC[C@@]56CCCN5C[C@H](F)C6)nc4c3F)c12 [Example 7, 5-ethyl-6-fluoro-4-(8-fluoro-2-(((2R,7aS)-2-fluorotetrahydro-1H-pyrrolizin-7a(5H)-yl)methoxy)-4-((1R,5R,6R)-6-hydroxy-3-azabicyclo[3.2.1]octan-3-yl)pyrido[4,3-d]pyrimidin-7-yl)naphthalen-2-yl piperidine-1-carboxylate] | > 289 | > 289 |  |
| CCc1c(F)ccc2cc(OC(=O)N(CCOC)CCOC)cc(N3CCc4c(nc(OC[C@@]56CCCN5C[C@H](F)C6)nc4N4CCC[C@]5(C4)NC(=O)NC5=O)C3)c12 [Example 65, 4-(4-((R)-2,4-dioxo-1,3,7-triazaspiro[4.5]decan-7-yl)-2-(((2R,7aS)-2-fluorotetrahydro-1H-pyrrolizin-7a(5H)-yl)methoxy)-5,8-dihydropyrido[3,4-d]pyrimidin-7(6H)-yl)-5-ethyl-6-fluoronaphthalen-2-yl bis(2-methoxyethyl)carbamate] |  | > 289 |  |
| CCc1c(F)ccc2cc(OC(=O)N3CCCCC3)cc(N3CCc4c(nc(OC[C@@]56CCCN5C/C(=C\F)C6)nc4N4CCC[C@]5(C4)NC(=O)NC5=O)C3)c12 [Example 73, 4-(4-(CAN-2,4-dioxo-1,3,7-triazaspiro[4.5]decan-7-yl)-2-(((S,Z)-2-(fluoromethylene)tetrahydro-1H-pyrrolizin-7a(5H)-yl)methoxy)-5,8-dihydropyrido[3,4-d]pyrimidin-7(6H)-yl)-5-ethyl-6-fluoronaphthalen-2-yl piperidine-1-carboxylate] | 147 |  |  |
| CCc1c(F)ccc2cc(OC(=O)C(C)C)cc(N3CCc4c(nc(OCC56CCCN5C/C(=C\F)C6)nc4N4CCC[C@]5(C4)NC(=O)NC5=O)C3)c12 (stereo partly drawn) [Example 76, 4-(4-(CAN-2,4-dioxo-1,3,7-triazaspiro[4.5]decan-7-yl)-2-(((S,Z)-2-(fluoromethylene)tetrahydro-1H-pyrrolizin-7a(5H)-yl)methoxy)-5,8-dihydropyrido[3,4-d]pyrimidin-7(6H)-yl)-5-ethyl-6-fluoronaphthalen-2-yl isobutyrate] | 4 |  |  |

Next, values leading:

| half-life at 2 μM [1] [min] | half-life at 2 μM [2] [min] | Mouse Whole Blood Stability t1/2 [1] [min] | SMILES |
| --- | --- | --- | --- |
| 3 | 23 |  | CCc1c(F)ccc2cc(OC(C)=O)cc(-c3ncc4c(N5C[C@@H]6C[C@H](C5)[C@H](O)C6)nc(OC[C@@]56CCCN5C[C@H](F)C6)nc4c3F)c12 [Example 1, 5-ethyl-6-fluoro-4-(8-fluoro-2-(((2R,7aS)-2-fluorotetrahydro-1H-pyrrolizin-7a(5H)-yl)methoxy)-4-((1R,5R,6R)-6-hydroxy-3-azabicyclo[3.2.1]octan-3-yl)pyrido[4,3-d]pyrimidin-7-yl)naphthalen-2-yl acetate] |
|  | 13 | 1 | CCC(=O)Oc1cc(-c2ncc3c(N4C[C@@H]5C[C@H](C4)[C@H](O)C5)nc(OC[C@@]45CCCN4C[C@H](F)C5)nc3c2F)c2c(CC)c(F)ccc2c1 [Example 2, 5-ethyl-6-fluoro-4-(8-fluoro-2-(((2R,7aS)-2-fluorotetrahydro-1H-pyrrolizin-7a(5H)-yl)methoxy)-4-((1R,5R,6R)-6-hydroxy-3-azabicyclo[3.2.1]octan-3-yl)pyrido[4,3-d]pyrimidin-7-yl)naphthalen-2-yl propionate] |
| 3 | 27 |  | CCc1c(F)ccc2cc(OC(=O)C(C)C)cc(-c3ncc4c(N5C[C@@H]6C[C@H](C5)[C@H](O)C6)nc(OC[C@@]56CCCN5C[C@H](F)C6)nc4c3F)c12 [Example 3, 5-ethyl-6-fluoro-4-(8-fluoro-2-(((2R,7aS)-2-fluorotetrahydro-1H-pyrrolizin-7a(5H)-yl)methoxy)-4-((1R,5R,6R)-6-hydroxy-3-azabicyclo[3.2.1]octan-3-yl)pyrido[4,3-d]pyrimidin-7-yl)naphthalen-2-yl isobutyrate] |
| 5 | 17 |  | CCc1c(F)ccc2cc(OC(=O)C3CC3)cc(-c3ncc4c(N5C[C@@H]6C[C@H](C5)[C@H](O)C6)nc(OC[C@@]56CCCN5C[C@H](F)C6)nc4c3F)c12 [Example 4, 5-ethyl-6-fluoro-4-(8-fluoro-2-(((2R,7aS)-2-fluorotetrahydro-1H-pyrrolizin-7a(5H)-yl)methoxy)-4-((1R,5R,6R)-6-hydroxy-3-azabicyclo[3.2.1]octan-3-yl)pyrido[4,3-d]pyrimidin-7-yl)naphthalen-2-yl cyclopropanecarboxylate] |
| 2 | 67 |  | CCc1c(F)ccc2cc(OC(=O)C(C)(C)C)cc(-c3ncc4c(N5C[C@@H]6C[C@H](C5)[C@H](O)C6)nc(OC[C@@]56CCCN5C[C@H](F)C6)nc4c3F)c12 [Example 5, 5-ethyl-6-fluoro-4-(8-fluoro-2-(((2R,7aS)-2-fluorotetrahydro-1H-pyrrolizin-7a(5H)-yl)methoxy)-4-((1R,5R,6R)-6-hydroxy-3-azabicyclo[3.2.1]octan-3-yl)pyrido[4,3-d]pyrimidin-7-yl)naphthalen-2-yl pivalate] |
|  | 9 | 1 | CCc1c(F)ccc2cc(OC(=O)OC)cc(-c3ncc4c(N5C[C@@H]6C[C@H](C5)[C@H](O)C6)nc(OC[C@@]56CCCN5C[C@H](F)C6)nc4c3F)c12 [Example 9, 5-ethyl-6-fluoro-4-(8-fluoro-2-(((2R,7aS)-2-fluorotetrahydro-1H-pyrrolizin-7a(5H)-yl)methoxy)-4-((1R,5R,6R)-6-hydroxy-3-azabicyclo[3.2.1]octan-3-yl)pyrido[4,3-d]pyrimidin-7-yl)naphthalen-2-yl methyl carbonate] |
| 2 |  |  | CCc1c(F)ccc2cc(OC(C)=O)cc(N3CCc4c(nc(OCC56CCCN5C/C(=C\F)C6)nc4N4CCC[C@]5(C4)NC(=O)NC5=O)C3)c12 (stereo partly drawn) [Example 72, 4-(4-(CAN-2,4-dioxo-1,3,7-triazaspiro[4.5]decan-7-yl)-2-(((S,Z)-2-(fluoromethylene)tetrahydro-1H-pyrrolizin-7a(5H)-yl)methoxy)-5,8-dihydropyrido[3,4-d]pyrimidin-7(6H)-yl)-5-ethyl-6-fluoronaphthalen-2-yl acetate] |
